Measured values taken from US20040220268A1, “Compound that directly stimulates phospholipase C activity” (priority 2003, published 2004).

What was measured:
Gs-proteins = assay: Cyclic AMP generation (radio receptor assay); assay type: cell-based; conditions: human neutrophils; m-3M3FBS 25 μM, histamine 100 μM
Experimental: (§1) Isolated neutrophils were preincubated with PTX (1 μg/ml) or vehicle for 90 min at 37° C. and stimulated with m-3M3FBS, FMLF, or ATP at concentrations of 25, 1, and 500 μM, respectively. Changes in the excitation ratios at 340 nm/380 nm were monitored. Data are presented as means ±S. E. M. of two independent experiments (A). cAMP levels were determined by a radio receptor assay. Prepared cells were treated with m-3M3FBS (25 μM) or histamine (100 μM) and then lysed with Tris-EDTA. After removing the supernatant, [ 3H] cAMP and protein were added, and the amount of [^3H] cAMP-protein complex was determined. The amount of unlabeled cAMP (in the sample) was then calculated by measuring the protein-bound radioactivity. Data are presented as means ±S. E. M. of two independent experiments (B). […] RGS2-GFP inducible HeLa cells were cultured for 48 h in the absence or in the presence of tetracycline and loaded with fura-2. Cells were treated with histamine (100 μM) or m-3M3FBS (25 μM), and changes in the 340 nm/380 nm ratios were monitored and converted to [Ca^2+]i values. The results shown are representative of three independent experiments (C).

human neutrophils [1] = assay: Cross-desensitization of [Ca2+]i responses in neutrophils; assay type: cell-based; conditions: extracellular calcium free
Experimental: FIG. 5 describes cross-desensitization experiments. Fura-2-loaded neutrophils were pretreated with m-3M3FBS (25 μM) and then rechallenged with ATP (500 μM) or WKYMVm (1 μM) in this or in the reverse order in the extracellular calcium free condition. Changes in the 340 nm/380 nm excitation ratio were monitored, and converted to [Ca^2+]i levels. The results shown are representative of three independent experiments.
(§2) Freshly prepared human neutrophils were incubated in serum free RPMI 1640 medium with 3 μM of fura-2/AM at 37° C. for 30 min with continuous stirring. After washing with serum free RPMI 1640 medium, the cells were suspended in serum free RPMI containing 250 μM of sulfinpyrazone to prevent dye leakage. About 2×10^6 cells were suspended in Ca^2+ free Locke's solution (158.4 mM NaCl, 5.6 mM KCl, 1.2 mM MgCl2, 5 mM HEPES pH 7.3, 10 mM glucose, and 0.2 mM EGTA) for each measurement. Changes in the fluorescence ratio were measured at an emission wavelength of 500 nm for dual excitation wavelengths at 340 nm and 380 nm. The calibration of the fluorescence ratio versus [Ca^2+]i was performed as described by Grynkiewicz (Grynkiewicz et al., 1985).

U937 cells = assay: [Ca2+]i measurement with fura-2; assay type: cell-based, human; conditions: 25 μM
Experimental: (§3) Neutrophils and HL60, and differentiated HL60, U937, NIH3T3, and PC12 cells were loaded with fura-2 and then stimulated with 25 μM of m-3M3FBS. Changes in the 340 nm/380 nm excitation ratio were monitored, and converted to [Ca^2+]i levels. Data are presented as means ±S. E. M. of three independent experiments.
(§4) U937 (human histiocytic lymphoma cells), HL60 (human promyelocytic leukemia cells), NIH3T3 (NIH Swiss mouse embryo fibroblasts), and PC12 (rat adrenal pheochromocytoma cells) were obtained from the American Type Culture Collection (Rockville, Md.) and HeLa (human adenocarcinoma cells) Tet-off cells were purchased from Clontech (Palo Alto, Calif., U.S.A.) and maintained as recommended. The cells were maintained at about 1×10^6 cells/ml under standard incubator conditions (humidified atmosphere, 95% air, 5% CO2, 37° C.). HL60 cells were induced to differentiate into the granulocyte phenotype by adding dimethylsulfoxide (DMSO) (final concentration 1.25% v/v) for 5 days, as has been described before (Ithoh et al., 1998).
as §2

[2] = system: differentiated HL60 cells; assay: [Ca2+]i measurement with fura-2; assay type: cell-based, human; conditions: 25 μM
Experimental: as §3, §4, §2

HL60 cells = assay: [Ca2+]i measurement with fura-2; assay type: cell-based, human; conditions: 25 μM
Experimental: as §3, §4, §2

PI3-kinase = assay: Akt phosphorylation in U937 cells; assay type: cell-based, human; conditions: 50 μM, data not shown
Excerpt: The result led us to check whether the compound act specifically on PLC or act on other enzymes that recognize phosphoinositols as substrates such as phosphoinositide-3-kinase (PI3-kinase). For this, we tested the effect of m-3M3FBS on the Akt phosphorylation that is dependent on the PI3-kinase in U937 cells. […] The result support our notion that m-3M3FBS acts specifically on PLC.

Gq-proteins = assay: [Ca2+]i in RGS2-GFP inducible HeLa cells; assay type: cell-based, human; conditions: histamine 100 μM, m-3M3FBS 25 μM
Experimental: as §1
pRevTRE vector containing the cDNA of rat RGS2-GFP was transfected into Hela Tet-off cells using Lipofectamine. Selection was performed in DMEM supplemented with 2 μg/ml of tetracycline and 500 μg/ml of hygromycin B. Two weeks later, several well-isolated colonies were picked out and analyzed by western blotting to determine the expression level of RGS2 in the absence of tetracycline. For these experiments, HeLa cells were cultured for 48 h in the absence or in the presence of tetracycline.
as §2

human neutrophils [3] = assay: [Ca2+]i measurement with fura-2 in neutrophils; assay type: cell-based
Experimental: Fura-2-loaded neutrophils were stimulated with m-3M3FBS or o-3M3FBS at 25 μM in extracellular calcium containing 2 mM or extracellular free calcium conditions. The results shown are representative of three independent experiments (A). Prepared neutrophils were loaded with fura-2 and then stimulated with 25 μM of m-3M3FBS in the absence or in the presence of 4 μM of U-73122 or U-73343 (B). Changes in 340 nm/380 nm excitation ratio were monitored, and converted to [Ca^2+]i levels. Data are presented as means ±S. E. M. of three independent experiments.
as §2

[4] = 25 μM, extracellular Ca2+ at physiologic levels (2 mM)

SMILES	intracellular cAMP level (Gs-proteins)	[Ca2+]i response when given after ATP or WKYMVm (human neutrophils [1]; 25 μM after ATP 500 μM or WKYMVm 1 μM)	effect of prestimulation on cellular response to ATP (human neutrophils [1]; m-3M3FBS 25 μM, then ATP 500 μM)	effect of prestimulation on cellular response to WKYMVm (human neutrophils [1]; m-3M3FBS 25 μM, then WKYMVm 1 μM)	calcium increase (U937 cells)	calcium increase [2]	calcium increase (HL60 cells)	phosphorylation level of Akt (PI3-kinase)	[Ca2+]i increase (Gq-proteins; HeLa cells in the presence of tetracycline (RGS2 not induced))	effect of RGS2 induction on the induced calcium response (Gq-proteins; HeLa cells overexpressing RGS2)	[Ca2+]i increase (human neutrophils [3]; [4])	[Ca2+]i increase (human neutrophils [3]; 25 μM, extracellular calcium-depleted condition)	concentration of saturated maximal activity of [Ca2+]i release (human neutrophils [3]; concentration dependent, data not shown) [µM]	calcium increase (human neutrophils [3]; human neutrophils, 25 μM)
Cc1cc(C)c(S(=O)(=O)Nc2cccc(C(F)(F)F)c2)c(C)c1 [m-3M3FBS, 2,4,6-Trimethyl-N-(meta 3-trifluoromethyl-phenyl)-benzenesulfonamide]	didn't change the cAMP level	elicited still further [Ca^2+]i increases	significantly reduced	significantly reduced	induced calcium increase	induced calcium increase	induced calcium increase	couldn't significantly increase	caused [Ca^2+]i increases	unaffected	caused a [Ca^2+]i increase	evoked a [Ca^2+]i increase	50	induced calcium increase
Cc1cc(C)c(S(=O)(=O)Nc2ccccc2C(F)(F)F)c(C)c1 [o-3M3FBS, 2,4,6-Trimethyl-N-(ortho 3-trifluoromethyl-phenyl)-benzenesulfonamide, reference compound]	–	–	–	–	–	–	–	–	–	–	failed to elicit this response	–	–	–
